This test deals with recombinant full length HPK-1 enzyme (Homo sapiens (Human), UniProt Q92918). As to the kind of experiment: HPK-1 biochemical enzyme assay (ADP-Glo kinase inhibition). Conditions: recombinant full length HPK-1 6.8 nM, 10 μM ATP, 12.5 μM MBP, 30 mins at 25° C. How it is done: HPK-1 biochemical enzyme assay
Compound inhibitory potency was measured in an HPK-1 kinase inhibition assay. Briefly, recombinant full length HPK-1 enzyme (6.8 nM) was incubated with 10 μM ATP and 12.5 μM swine myelin basic protein (MBP) for 30 mins. at 25° C. in the presence of various concentrations of test compound or vehicle in 40 mM Tris.Cl pH7.4 buffer containing 20 mM MgCl2, 50 μM DTT and 0.1 mg/mL BSA. Reactions were quenched and reaction mixtures were then analyzed by an ADP-Glo kit which measures the formed ADP. The percent inhibition was calculated from the substrate conversion considering no enzyme control reactions for 100% inhibition and vehicle only reactions for 0% inhibition. The compounds were dissolved in DMSO and evaluated at 10 concentrations to determine an IC50 value.
In the below table A denotes an HPK-1 IC50≤10 nM, B denotes an HPK-1 IC50>10 nM but≤100 nM and C denotes an HPK-1 IC50>100 nM but≤1000 nM.
Background: In ADP-Glo the light output rises with the ADP produced.

Where a name gives a salt, the structure may show the parent alone. Bounds are passed on as bounds.

From patent US20250282794A1 (CURADEV PHARMA LTD, priority 2022, published 2025) come the findings set out here.

A word on the IC50: it is the midpoint of a concentration-inhibition curve.

recombinant full length HPK-1 enzyme, sequence (Q92918 whole entry, species assumed): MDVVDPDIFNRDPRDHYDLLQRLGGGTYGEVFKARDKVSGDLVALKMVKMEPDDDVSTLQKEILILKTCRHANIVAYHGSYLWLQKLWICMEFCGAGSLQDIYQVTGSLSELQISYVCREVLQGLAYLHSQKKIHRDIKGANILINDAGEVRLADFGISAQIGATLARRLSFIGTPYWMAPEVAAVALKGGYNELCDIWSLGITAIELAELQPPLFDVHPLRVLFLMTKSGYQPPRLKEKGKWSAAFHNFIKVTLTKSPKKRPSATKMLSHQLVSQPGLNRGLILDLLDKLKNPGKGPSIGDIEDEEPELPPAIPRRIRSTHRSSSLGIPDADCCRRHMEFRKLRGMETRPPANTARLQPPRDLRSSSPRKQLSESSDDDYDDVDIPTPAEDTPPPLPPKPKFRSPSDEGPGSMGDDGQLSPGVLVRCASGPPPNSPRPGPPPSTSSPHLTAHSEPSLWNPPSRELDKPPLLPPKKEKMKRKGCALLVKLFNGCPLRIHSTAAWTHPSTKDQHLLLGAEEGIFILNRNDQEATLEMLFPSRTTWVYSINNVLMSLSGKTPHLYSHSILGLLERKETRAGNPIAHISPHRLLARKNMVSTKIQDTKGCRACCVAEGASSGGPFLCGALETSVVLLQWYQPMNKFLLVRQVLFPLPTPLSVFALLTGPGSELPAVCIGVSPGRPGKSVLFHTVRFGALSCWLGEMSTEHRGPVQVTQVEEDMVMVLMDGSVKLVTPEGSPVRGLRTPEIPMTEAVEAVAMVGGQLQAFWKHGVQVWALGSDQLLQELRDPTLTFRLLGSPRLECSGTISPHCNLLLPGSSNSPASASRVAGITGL

In the case of `Cc1c(Nc2cc[nH]c(=O)c2C(=O)Nc2ccc(N3CCN(C)CC3)cc2)cnc2c1NCCO2` [Example 45, 4-((8-Methyl-2,3-dihydro-1H-pyrido[2,3-b][1,4]oxazin-7-yl)amino)-N-(4-(4-methylpiperazin-1-yl)phenyl)-2-oxo-1,2-dihydropyridine-3-carboxamide], the IC50 was ≤ 10 nM.

With `Cc1c(Nc2cc[nH]c(=O)c2C(=O)Nc2ccc(N3CCN(C)CC3)cc2)cnc2c1N(C)CCO2` [Example 93, 4-((1,8-dimethyl-2,3-dihydro-1H-pyrido[2,3-b][1,4]oxazin-7-yl)amino)-N-(4-(4-methylpiperazin-1-yl)phenyl)-2-oxo-1,2-dihydropyridine-3-carboxamide], the IC50 is 10 to 100 nM.

Turning to `Cc1c(Nc2cc[nH]c(=O)c2C(=O)Nc2ccc(N3CCN(C)CC3)c(F)c2)cnc2c1NCCO2` [Example 96, N-(3-fluoro-4-(4-methylpiperazin-1-yl)phenyl)-4-((8-methyl-2,3-dihydro-1H-pyrido[2,3-b][1,4]oxazin-7-yl)amino)-2-oxo-1,2-dihydropyridine-3-carboxamide], the IC50 is ≤ 10 nM.

Consider `Cc1c(Nc2cc[nH]c(=O)c2C(=O)Nc2ccc(C3CCN(C)CC3)cc2)cnc2c1NCCO2` [Example 97, 4-((8-methyl-2,3-dihydro-1H-pyrido[2,3-b][1,4]oxazin-7-yl)amino)-N-(4-(1-methylpiperidin-4-yl)phenyl)-2-oxo-1,2-dihydropyridine-3-carboxamide], for which the IC50 was ≤ 10 nM.

With `Cc1c(Nc2nc[nH]c(=O)c2C(=O)Nc2ccc(N3CCN(C)CC3)cc2)cnc2c1NCCO2` [Example 98, 4-((8-Methyl-2,3-dihydro-1H-pyrido[2,3-b][1,4]oxazin-7-yl)amino)-N-(4-(4-methylpiperazin-1-yl)phenyl)-6-oxo-1,6-dihydropyrimidine-5-carboxamide], the half-inhibitory concentration (IC50) was in the range of 10 to 100 nM.

As for `Cc1c(Nc2cc[nH]c(=O)c2C(=O)Nc2ccc(N3CCN(CCO)CC3)cc2)cnc2c1NCCO2` [Example 105, N-(4-(4-(2-hydroxyethyl)piperazin-1-yl)phenyl)-4-((8-methyl-2,3-dihydro-1H-pyrido[2,3-b][1,4]oxazin-7-yl)amino)-2-oxo-1,2-dihydropyridine-3-carboxamide], the IC50 is ≤ 10 nM.

With `Cc1c(Nc2cc[nH]c(=O)c2C(=O)Nc2ccc(N3CCN(C(C)C)CC3)cc2)cnc2c1NCCO2` [Example 106, N-(4-(4-isopropylpiperazin-1-yl)phenyl)-4-((8-methyl-2,3-dihydro-1H-pyrido[2,3-b][1,4]oxazin-7-yl)amino)-2-oxo-1,2-dihydropyridine-3-carboxamide], the IC50 is ≤ 10 nM.

As to `CN1CCN(c2ccc(NC(=O)c3c(Nc4cnc5c(c4)NCCO5)cc[nH]c3=O)cc2)CC1` [Example 115, 4-((2,3-dihydro-1H-pyrido[2,3-b][1,4]oxazin-7-yl)amino)-N-(4-(4-methylpiperazin-1-yl)phenyl)-2-oxo-1,2-dihydropyridine-3-carboxamide.TFA], the IC50 lay in the range of 10 to 100 nM.

Consider `CN1CCN(c2ccc(NC(=O)c3c(Nc4cnc5c(c4)N(C)CCO5)cc[nH]c3=O)cc2)CC1` [Example 118, 4-((1-methyl-2,3-dihydro-1H-pyrido[2,3-b][1,4]oxazin-7-yl)amino)-N-(4-(4-methylpiperazin-1-yl)phenyl)-2-oxo-1,2-dihydropyridine-3-carboxamide], for which the IC50 is 10 to 100 nM.

As for `Cc1c(Nc2cc[nH]c(=O)c2C(=O)Nc2ccc(N3CCN(C)CC3)cc2)cnc2c1NCC(C)O2` (stereo not shown) [Example 125, 4-((3,8-dimethyl-2,3-dihydro-1H-pyrido[2,3-b][1,4]oxazin-7-yl)amino)-N-(4-(4-methylpiperazin-1-yl)phenyl)-2-oxo-1,2-dihydropyridine-3-carboxamide], the IC50 lay within 10 to 100 nM.

In the case of `Cc1c(Nc2cc[nH]c(=O)c2C(=O)Nc2ccc(N3CCN(C)CC3)cc2)cnc2c1NC(=O)CO2` [Example 126, 4-((8-methyl-2-oxo-2,3-dihydro-1H-pyrido[2,3-b][1,4]oxazin-7-yl)amino)-N-(4-(4-methylpiperazin-1-yl)phenyl)-2-oxo-1,2-dihydropyridine-3-carboxamide], the IC50 was in the range of 10 to 100 nM.

In the case of `Cc1c(Nc2cc[nH]c(=O)c2C(=O)Nc2ccc(-c3ccccn3)cc2)cnc2c1NCCO2` [Example 130, 4-((8-methyl-2,3-dihydro-1H-pyrido[2,3-b][1,4]oxazin-7-yl)amino)-2-oxo-N-(4-(pyridin-2-yl)phenyl)-1,2-dihydropyridine-3-carboxamide], the IC50 was in the range of 10 to 100 nM.

On to `COc1c(Nc2cc[nH]c(=O)c2C(=O)Nc2ccc(N3CCN(C)CC3)cc2)cnc2c1NCCO2` [Example 132, 4-((8-Methoxy-2,3-dihydro-1H-pyrido[2,3-b][1,4]oxazin-7-yl)amino)-N-(4-(4-methylpiperazin-1-yl)phenyl)-2-oxo-1,2-dihydropyridine-3-carboxamide], for which the IC50 lay in the range of 10 to 100 nM.

Regarding `Cc1c(Nc2cc[nH]c(=O)c2C(=O)Nc2ccc(C3CCOCC3)cc2)cnc2c1NCCO2` [Example 133, 4-((8-methyl-2,3-dihydro-1H-pyrido[2,3-b][1,4]oxazin-7-yl)amino)-2-oxo-N-(4-(tetrahydro-2H-pyran-4-yl)phenyl)-1,2-dihydropyridine-3-carboxamide], the IC50 is 10 to 100 nM.

On to `Cc1c(Nc2cc[nH]c(=O)c2C(=O)Nc2ccc(N3CCN(C(C)C)CC3)c(F)c2)cnc2c1NCCO2` [Example 134, N-(3-fluoro-4-(4-isopropylpiperazin-1-yl)phenyl)-4-((8-methyl-2,3-dihydro-1H-pyrido[2,3-b][1,4]oxazin-7-yl)amino)-2-oxo-1,2-dihydropyridine-3-carboxamide], for which the IC50 is ≤ 10 nM.

For `CCN1CCN(c2ccc(NC(=O)c3c(Nc4cnc5c(c4C)NCCO5)cc[nH]c3=O)cc2F)CC1` [Example 135, N-(4-(4-ethylpiperazin-1-yl)-3-fluorophenyl)-4-((8-methyl-2,3-dihydro-1H-pyrido[2,3-b][1,4]oxazin-7-yl)amino)-2-oxo-1,2-dihydropyridine-3-carboxamide], the concentration for half-maximal inhibition (IC50) was ≤ 10 nM.

For `CCN1CCN(c2ccc(NC(=O)c3c(Nc4cnc5c(c4C)NCCO5)cc[nH]c3=O)cc2)CC1` [Example 136, N-(4-(4-ethylpiperazin-1-yl)phenyl)-4-((8-methyl-2,3-dihydro-1H-pyrido[2,3-b][1,4]oxazin-7-yl)amino)-2-oxo-1,2-dihydropyridine-3-carboxamide], the IC50 was ≤ 10 nM.

For `Cc1c(Nc2cc[nH]c(=O)c2C(=O)Nc2ccc(N3CCN(C(=O)N(C)C)CC3)cc2)cnc2c1NCCO2` [Example 137, N,N-Dimethyl-4-(4-(4-((8-methyl-2,3-dihydro-1H-pyrido[2,3-b][1,4]oxazin-7-yl)amino)-2-oxo-1,2-dihydropyridine-3-carboxamido)phenyl) piperazine-1-carboxamide], the half-inhibitory concentration (IC50) was ≤ 10 nM.

Turning to `Cc1c(Nc2cc[nH]c(=O)c2C(=O)Nc2ccc(N3CCS(=O)(=O)CC3)cc2)cnc2c1NCCO2` [Example 138, N-(4-(1,1-dioxidothiomorpholino)phenyl)-4-((8-methyl-2,3-dihydro-1H-pyrido[2,3-b][1,4]oxazin-7-yl)amino)-2-oxo-1,2-dihydropyridine-3-carboxamide], the IC50 is ≤ 10 nM.

Regarding `Cc1c(Nc2cc[nH]c(=O)c2C(=O)Nc2ccc(N3CCNCC3)cc2)cnc2c1NCCO2` [Example 139, 4-((8-methyl-2,3-dihydro-1H-pyrido[2,3-b][1,4]oxazin-7-yl)amino)-2-oxo-N-(4-(piperazin-1-yl)phenyl)-1,2-dihydropyridine-3-carboxamide], the 50% inhibitory concentration (IC50) was ≤ 10 nM.

Turning to `COCCN1CCN(c2ccc(NC(=O)c3c(Nc4cnc5c(c4C)NCCO5)cc[nH]c3=O)cc2)CC1` [Example 140, N-(4-(4-(2-methoxyethyl)piperazin-1-yl)phenyl)-4-((8-methyl-2,3-dihydro-1H-pyrido[2,3-b][1,4]oxazin-7-yl)amino)-2-oxo-1,2-dihydropyridine-3-carboxamide], the IC50 was ≤ 10 nM.

Regarding `Cc1c(Nc2cc[nH]c(=O)c2C(=O)Nc2ccc(N3CCN(C(=O)N4CCC(F)(F)C4)CC3)cc2)cnc2c1NCCO2` [Example 143, N-(4-(4-(3,3-difluoropyrrolidine-1-carbonyl)piperazin-1-yl)phenyl)-4-((8-methyl-2,3-dihydro-1H-pyrido[2,3-b][1,4]oxazin-7-yl)amino)-2-oxo-1,2-dihydropyridine-3-carboxamide], the IC50 is ≤ 10 nM.

For the compound `Cc1c(Nc2cc[nH]c(=O)c2C(=O)Nc2ccc(-c3cn[nH]c3)cc2)cnc2c1NCCO2` [Example 144, N-(4-(1H-pyrazol-4-yl)phenyl)-4-((8-methyl-2,3-dihydro-1H-pyrido[2,3-b][1,4]oxazin-7-yl)amino)-2-oxo-1,2-dihydropyridine-3-carboxamide], the IC50 is 10 to 100 nM.

As for `Cc1c(Nc2cc[nH]c(=O)c2C(=O)Nc2ccc(-c3cc[nH]n3)cc2)cnc2c1NCCO2` [Example 145, N-(4-(1H-pyrazol-3-yl)phenyl)-4-((8-methyl-2,3-dihydro-1H-pyrido[2,3-b][1,4]oxazin-7-yl)amino)-2-oxo-1,2-dihydropyridine-3-carboxamide], the IC50 lay within 10 to 100 nM.

As to `Cc1c(Nc2cc[nH]c(=O)c2C(=O)Nc2ccc(-c3cnco3)cc2)cnc2c1NCCO2` [Example 146, 4-((8-methyl-2,3-dihydro-1H-pyrido[2,3-b][1,4]oxazin-7-yl)amino)-N-(4-(oxazol-5-yl)phenyl)-2-oxo-1,2-dihydropyridine-3-carboxamide], the concentration for half-maximal inhibition (IC50) lay within 10 to 100 nM.
